According to patent publication US11318090B1, “In situ gelling composition as a pH-selective and mucoadhesive sustained release drug delivery system” (King Abdulaziz University, priority 2021, dated 2022):

Assay: pH-profile drug release in dialysis bag, consecutive simulated gastrointestinal media
Type: physicochemical
Method: Rv (Sigma-Aldrich, USA) stock solution of 15 μg/mL was prepared in distilled water. Using UV spectrophotometric analysis (Shimadzu-UV-Vis Spectrophotometers, Japan), the analysis was conducted at a wavelength of 306 nm in a 1 cm cell compared to a blank solution of distilled water. To construct a calibration curve, dilutions had been prepared (FIG. 1). The ? -max selection was based on the UV-scanning from 200-400 nm of pure Rv solution. The formulations' drug-content assays for drug encapsulation efficiency were accomplished by dissolving the formulation in ethanol and centrifuging it for 30 minutes at 1500 rpm. After that, an accurate volume of the supernatant transparent layer had been measured for UV-absorbance at 306 nm for Rv content. This ? -max was unique for Rv only (Zhang Lingtuo et al. 2019).
The formulations in Table 1 containing 500 mg of the Rv were each encountered in the dialysis bag (14000 Daltons cut off, Sigma-Aldrich, USA). The dry weights of the formulations were reconstituted with distilled water before enclosing them inside the dialysis bag. The release media volume was 300 mL. The drug-release experiment was designed to simulate the gastrointestinal-pH and transit time after oral ingestion. As a result, the dialysis membranes' surrounding media simulated gastric media (0.1N HCl-pH 1.2), proximal intestine simulated media (phosphate buffer-pH 6.5), the distal area of the small intestine (phosphate buffer-pH 6.8), and phosphate buffer media-pH 7.4 of descending colon simulated media, consecutively. The transit time for each simulated media was two hrs (Amidon et al. 2015; Maurer et al. 2015; Bani-Jaber and Abdullah 2020). The dialysis membranes were subjected to 37±0.5° C. in a water bath shaker of 75 rpm speed. Total release media replacement was made after each hour of dissolution to simulate body sink conditions. This experiment was conducted to optimize the formulation depending on SR behavior and drug encapsulation efficiency. The optimum formula was subjected to aging, gel swelling studies, nanoparticle, and formulation's physiochemical characterizations.

Question: With 3,5,4-trihydroxytrans-stilbene [Rv] as the substance, how does the “Gastric % Release” value (0.1N HCl pH 1.2, 2 hrs, 37°C, 500 mg Rv, freshly prepared) read?
Answer: 16.83%

Question: And the “average total pH-profile release after 8 hrs” value (pH 1.2, 6.5, 6.8, 7.4, 2 hrs each)?
Answer: 50.89%

Question: And the “Intestinal-Colonic % Release” value (pH 6.5, 6.8 and 7.4 media together (6 hrs), freshly prepared)?
Answer: 34.06%

Question: And the “Proximal Intestine % Release” value (phosphate buffer pH 6.5, 2 hrs, freshly prepared)?
Answer: 11.49%

Question: And the “Distal Intestine % Release” value (phosphate buffer pH 6.8, 2 hrs, freshly prepared)?
Answer: 12.74%

Question: And the “Colon % Release” value (phosphate buffer pH 7.4, 2 hrs, freshly prepared)?
Answer: 9.83%
